Consider four compounds from publication PMC7311950, “Potent Tetrahydroquinolone Eliminates Apicomplexan Parasites” (Frontiers in Cellular and Infection Microbiology, 2020).

In one data set the test system is T. gondii RPS13Δ. Kind of data set: RPS13Δ infection of interferon γ receptor knockout mice. It counts as in vivo, Toxoplasma gondii. The note with it: mice to start 5 (Tafenoquine), 5 (JAG21). How it is done:
In pilot studies, herein, interferon γ receptor knockout mice that were not treated were observed following infection. At 7 and at 14 days following infection, spleen, and liver were removed and immune peroxidase stained. At 14 days a group of mice were treated with anhydrotetracycline and when a subset of these mice died, their spleen and liver were removed and immune peroxidase stained.
As in the pilot studies, this RPS13 Δ parasite also was used to infect interferon γ receptor knockout mice in a treatment study. In this separate study, groups of mice were infected with RPS13 Δ. They were treated with tafenoquine on day−1, or JAG21 for 14 days 2 h after infection, or the two together with tafenoquine on day−1 and JAG21 for the first 14 days, or with diluent only for 14 days, as described above. For the initial 14 days, no tetracycline was administered. After that time tetracycline was administered. Mice were observed each day. At the time they appeared to have substantial illness or at the termination of the experiment they were euthanized, tissues fixed in formalin and stained with hematoxylin and eosin or immunoperoxidase stained and parasite burden was assessed.

Data set [1] deals with T. gondii RH-YFP tachyzoites. The data set can be described thus: In vitro challenge assay, RH strain YFP tachyzoites in HFF. It counts as cell-based. The note with it: Toxoplasma gondii; RH-YFP tachyzoites in HFF; Figure 1A; read-out: Tachy IC50. How it is done: RH strain YFP Tachyzoites. Protocol was adapted from Fomovska et al. ([2012a],[b]) for HFF. HFF were cultured on a flat, clear-bottomed, black 96-well plate to 90–100% confluence. IMDM (1x, [+] glutamine, [+] 25 mM HEPES, [+] Phenol red, 10% FBS [Gibco, Denmark]) was removed and replaced with IMDM-C(1x, [+] glutamine, [+] 25 mM HEPES, [–] Phenol red, 10% FBS)[Gibco, Denmark]). RH-YFP, lysed from host cells by passing twice through a 27-gauge needle, were counted, then diluted to 32,000/mL in IMDM-C. HFF were infected with 3200 RH-YFP, then returned to 37°C, CO2 (5%) incubator for 1–2 h for infection. Various concentrations of the compounds in 20 μL IMDM-C were added to each well. There were triplicates for each condition. Controls were pyrimethamine/sulfadiazine (standard treatment), 0.1% DMSO only, HFF only, and untreated cultures of HFF infected with 2-fold dilutions of YFP expressing parasites (called “YFP gradient” to establish amount of color from known numbers of YFP expressing parasites). Cells were incubated at 37°C for 72 h. Plates were read using a fluorimeter (Synergy H4 Hybrid Reader, BioTek) to ascertain amount of relative fluorescence units (RFU) YFP, to measure parasite burden after treatment. Data were collected using Gen5 software with IC50 calculated by graphical analysis in Excel.
An initial screening assay of 10 μM, 1 μM, 100 nM, and 10 nM of the compounds was performed. Compounds were not considered effective or pursued for further analysis if there was no inhibition of tachyzoites at 1 μM. If compounds were effective at 1 μM, another experiment was performed to assess effect at 1 μM, 500, 250, 125, 62.5, and 31.25 nM.

Data set [2] relates to P. falciparum strains D6, TM91-C235, W2, C2B. Kind of data set: Malaria SYBR Green I-Based Fluorescence (MSF) assay. The settings on record: Plasmodium falciparum. The data set is classed as cell-based. How it is done: Malaria potency testing in vitro was performed using 4 different P. falciparum strains, D6, TM91-C235, W2, and C2B. The D6 strain is a drug sensitive strain from Sierra Leone, the TM91-C235 strain is a multi-drug resistant strain from Thailand, the W2 strain is a chloroquine resistant strain from Thailand, and the C2B strain is a multi-drug resistant strain with resistance against atovaquone. These assays were performed as described below.
Compound activity against P. falciparum, was tested using the Malaria SYBR Green I–Based Fluorescence (MSF) Assay. The complete method for performing this microtiter assay is described in previous work published by Plouffe et al. ([2008]) and Johnson et al. ([2007]). In brief, this assay uses the binding of the fluorescent dye SYBR Green I to malaria DNA to measure parasite growth in the presence of 2-fold diluted experimental or control. The relative fluorescence of the intercalated SYBR Green I proportional to parasite growth, and inhibitory compounds will result in lower observed fluorescence compared to untreated parasites.

Data set [3] deals with T. gondii mitochondrial membrane potential. Kind of data set: T. gondii mitochondrial membrane potential, safranine method. It counts as cell-based, Toxoplasma gondii. The note with it: doses as high as 4 μM. How it is done:
The mitochondrial membrane potential was measured by the safranine method according to Vercesi et al. ([1998]). Freshly egressed T. gondii tachyzoites were filtered and washed twice with intracellular buffer (125 mM sucrose, 65 mM KCl, 10 mM HEPES-KOH buffer, pH 7.2, 1 mM MgCl2, and 2.5 mM potassium phosphate). After washing, the parasites were resuspended in the same buffer at 10^9/mL. An aliquot of 50 μL of this suspension was added to a cuvette containing Safranin O, 2.5 μM and Succinate 1 mM in final volume of 2 mL of the intracellular buffer. The fluorescence was measured with a Hitachi 7000 spectrofluorometer with settings Ex. 495/Em. 586. Once the baseline fluorescence was stable, 30 μM digitonin was added to permeabilize the parasites. Eighty five seconds after permeabilization, the THQ derivatives, dissolved in DMSO, were added. Five micromolars of FCCP (Carbonyl cyanide-4-(trifluoromethoxy) phenylhydrazone) was used as an uncoupler reference for calculations and its effect was considered 100%. We used similar conditions for measuring the mitochondrial membrane potential of mammalian cells with the following changes: the mammalian cells were resuspended at 10^8/mL. We also used 50 μL of this suspension for each experiment in a total volume of 2 mL. The substrate used for mammalian cells was 5 mM glutamate and 5 mM malate. A higher concentration of digitonin (50 μM) was used to permeabilize the mammalian cells. The compounds were added at ~400 s after permeabilization. Each experiment was repeated at least three times in duplicates. Statistical analysis, unpaired student t-test, was performed using GraphPad Prism 8.0 (GraphPad Software, Inc., San Diego, CA).
Mitochondrial membrane potential measurements were performed with permeabilized T. gondii tachyzoites in suspension using safranin O, which loads into polarized membranes [see section Materials and Methods in the Supplemental Materials (Vercesi et al., [1998])]. T. gondii tachyzoites were permeabilized with digitonin to allow the mitochondrial substrate succinate to cross the membrane and energize the mitochondrion. The fluorescence of safranin O, which loads into energized mitochondria was used to measure the membrane potential. The energized state of the mitochondrion is observed by a decrease in fluorescence (Figures 3A,C,E). Trifluoromethoxy carbonylcyanide phenylhydrazone (FCCP) was used to depolarize the membrane, which is observed as an increase in fluorescence (Figures 3A,B). JAG21 depolarized the membrane potential even at concentrations as low as 2 nM (Figures 3C,D). JAG21 and Atovaquone had similar effects on the mitochondrial membrane potential (Figure 3D). […]

In data set [4] the test system is Human Foreskin Fibroblast (HFF). Kind of data set: Cytotoxicity assay, WST-1 cell proliferation reagent on HFF. It counts as cell-based. How it is done:
Toxicity assays used WST-1 cell proliferation reagent (Roche) as in Fomovska et al. ([2012a]). HFF were grown on a flat, clear-bottomed, black 96-well plate. Confluent HFF were treated with inhibitory compounds at concentrations of 10 and 50 μM. Compounds were diluted in IMDM-C, and 20 μL were added to each designated well, with triplicates for each condition. A gradient with 2-folddecreasing concentrations of DMSO from 10 to 0% in colorless, translucent IMDM-C was used as a control. The plate was incubated for 72 h at 37°C. Ten microlitre WST-1 reagent (Roche) were added to each well. Cells were incubated for 30–60 min. Absorbance was read using a fluorimeter at 420 nm. A higher degree of color change (and absorbance) indicated mitochondrial activity and cell viability.
Background: Formazan colour is commonly taken as a measure of viable cells.

The mark [5] stands for this setting: C2B, multi-drug resistant strain with resistance against atovaquone, read-out: SYBR Green C2B IC50.
Where [6] appears, read: D6, drug sensitive strain, read-out: SYBR Green D6 IC50.
The mark [7] stands for this setting: TM91-C235, multi-drug resistant strain, read-out: SYBR Green C235 IC50.
[8] abbreviates: W2, chloroquine resistant strain, read-out: SYBR Green W2 IC50.

Where two headings read alike, the source gives them in different places. Bounds are passed on as bounds.

For the compound `COc1cc(C)c2c(Oc3cccc(C(F)(F)F)c3)c(OC)cc(NC(C)CCCN)c2n1` (stereo not drawn) [TAF, tafenoquine, reference compound], in the data set on T. gondii RPS13Δ (Experiment 1, 6 (Tafenoquine+JAG21)), the “number of mice left at 42” value is 1. In the data set with T. gondii RPS13Δ (Experiment 2, 9 (Tafenoquine+JAG21)), the “number of mice left at 37” value is given as 2.

By IC50 is commonly meant the midpoint of a concentration-inhibition curve. For the compound `Cc1[nH]c2c(c(=O)c1-c1ccc(Oc3cccc(C(=O)O)c3)cc1)CCCC2` [JAG047], the 50% inhibitory concentration (IC50) in data set [1] is above 10 µM; in data set [2] (setting [5]) it was 7.78 µM; in data set [2] (setting [6]), 3.75 µM; in data set [2] (setting [7]), 12.6 µM; in data set [2] (setting [8]), 9.07 µM. In addition, in data set [3], the “effect on mitochondrial membrane potential” value is given as “almost no effect”.

In data set [4], `COc1ccc(Oc2ccc(-c3c(C)[nH]c4c(c3=O)CCCC4)cc2)cc1OC` [AS033] showed a Toxicity of 5 µM.

On to `Cc1[nH]c2c(c(=O)c1-c1ccc(Oc3ccc(C(=O)O)cc3)cc1)CCCC2` [JAG046], for which the IC50 in data set [1] is above 10 µM; in data set [2] (setting [5]) it was above 20 µM; in data set [2] (setting [6]), 6.72 µM; in data set [2] (setting [7]), above 20 µM; in data set [2] (setting [8]) it was above 20 µM. In data set [3], the “effect on mitochondrial membrane potential” value is given as “almost no effect”.
